US20110152313A1 (MACQUARIE UNIVERSITY, priority 2008, published 2011)

Legend:
Experiment in all cases: kinase binding screen (kinase-tagged T7 phage, qPCR), % Ctrl
[1] = target: T1, TBK1 (Homo sapiens, UniProt Q9UHD2)
T1 sequence (Q9UHD2 1-729): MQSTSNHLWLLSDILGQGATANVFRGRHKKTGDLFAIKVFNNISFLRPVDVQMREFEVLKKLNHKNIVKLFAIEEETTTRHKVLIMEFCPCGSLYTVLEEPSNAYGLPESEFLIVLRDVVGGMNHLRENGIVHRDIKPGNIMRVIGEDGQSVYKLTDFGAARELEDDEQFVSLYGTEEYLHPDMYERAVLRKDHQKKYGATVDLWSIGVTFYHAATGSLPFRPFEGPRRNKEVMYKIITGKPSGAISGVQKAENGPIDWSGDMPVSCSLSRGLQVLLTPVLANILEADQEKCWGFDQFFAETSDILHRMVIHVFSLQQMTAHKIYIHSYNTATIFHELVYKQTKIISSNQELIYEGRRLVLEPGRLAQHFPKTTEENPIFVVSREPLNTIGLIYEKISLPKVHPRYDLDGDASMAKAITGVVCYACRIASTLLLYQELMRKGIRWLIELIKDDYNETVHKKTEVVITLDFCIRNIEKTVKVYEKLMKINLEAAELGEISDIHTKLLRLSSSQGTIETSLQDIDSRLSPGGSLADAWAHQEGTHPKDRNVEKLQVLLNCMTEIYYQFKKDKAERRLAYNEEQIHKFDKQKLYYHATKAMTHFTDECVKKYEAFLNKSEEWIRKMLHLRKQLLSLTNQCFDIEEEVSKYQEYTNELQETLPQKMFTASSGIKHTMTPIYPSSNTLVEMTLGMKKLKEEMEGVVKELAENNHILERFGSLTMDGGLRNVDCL
Method in brief: (§1)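 Competition binding: kinase-tagged T7 phage (grown in BL21-derived E. coli, lysed at 32° C) incubated with immobilized ligand on biotin-blocked beads plus test compound; bound kinase in eluates quantified by qPCR. Compounds tested at a single set concentration, added from 40× DMSO stocks.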

[2] = target: MKNK2 (Homo sapiens, UniProt Q9HBH9)
Method in brief: as §1

[3] = target: T2, MAP3K15 (Homo sapiens, UniProt Q6ZN16)
T2 sequence (Q6ZN16 1-1313): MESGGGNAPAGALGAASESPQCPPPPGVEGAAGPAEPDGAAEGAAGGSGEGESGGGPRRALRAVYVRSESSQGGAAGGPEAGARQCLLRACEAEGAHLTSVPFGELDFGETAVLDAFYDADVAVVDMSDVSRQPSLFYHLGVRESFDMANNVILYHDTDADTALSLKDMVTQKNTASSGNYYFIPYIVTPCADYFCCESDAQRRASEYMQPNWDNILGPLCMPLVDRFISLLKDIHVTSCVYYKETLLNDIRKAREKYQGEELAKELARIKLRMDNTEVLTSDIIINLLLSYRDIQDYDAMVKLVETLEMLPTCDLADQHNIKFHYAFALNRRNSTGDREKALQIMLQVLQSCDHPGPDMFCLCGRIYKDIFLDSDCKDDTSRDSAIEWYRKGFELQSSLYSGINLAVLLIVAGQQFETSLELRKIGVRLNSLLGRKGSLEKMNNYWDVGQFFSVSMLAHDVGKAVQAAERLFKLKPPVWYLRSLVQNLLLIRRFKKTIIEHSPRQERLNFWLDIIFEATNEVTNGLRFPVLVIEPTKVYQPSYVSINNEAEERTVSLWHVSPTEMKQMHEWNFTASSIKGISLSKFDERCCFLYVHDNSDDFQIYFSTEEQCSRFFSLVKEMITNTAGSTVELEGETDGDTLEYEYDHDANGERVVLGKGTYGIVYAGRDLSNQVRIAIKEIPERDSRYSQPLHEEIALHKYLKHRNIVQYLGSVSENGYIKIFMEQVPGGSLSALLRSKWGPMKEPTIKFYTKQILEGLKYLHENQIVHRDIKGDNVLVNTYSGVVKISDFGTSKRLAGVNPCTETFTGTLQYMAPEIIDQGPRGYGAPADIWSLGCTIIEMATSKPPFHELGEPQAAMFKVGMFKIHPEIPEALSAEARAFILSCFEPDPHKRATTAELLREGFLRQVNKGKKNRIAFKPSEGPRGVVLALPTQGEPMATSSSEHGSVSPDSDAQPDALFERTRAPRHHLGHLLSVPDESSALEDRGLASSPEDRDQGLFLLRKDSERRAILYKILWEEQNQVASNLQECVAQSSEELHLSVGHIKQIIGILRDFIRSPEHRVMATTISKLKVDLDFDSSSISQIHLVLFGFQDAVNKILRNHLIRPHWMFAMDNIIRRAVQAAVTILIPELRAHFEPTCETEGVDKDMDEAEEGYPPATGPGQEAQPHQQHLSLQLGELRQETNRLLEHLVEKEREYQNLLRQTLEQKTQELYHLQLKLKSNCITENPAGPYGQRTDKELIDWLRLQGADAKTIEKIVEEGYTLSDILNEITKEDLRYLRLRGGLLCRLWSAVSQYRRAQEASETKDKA
Method in brief: as §1

MKNK2, sequence (Q9HBH9 whole entry, species assumed): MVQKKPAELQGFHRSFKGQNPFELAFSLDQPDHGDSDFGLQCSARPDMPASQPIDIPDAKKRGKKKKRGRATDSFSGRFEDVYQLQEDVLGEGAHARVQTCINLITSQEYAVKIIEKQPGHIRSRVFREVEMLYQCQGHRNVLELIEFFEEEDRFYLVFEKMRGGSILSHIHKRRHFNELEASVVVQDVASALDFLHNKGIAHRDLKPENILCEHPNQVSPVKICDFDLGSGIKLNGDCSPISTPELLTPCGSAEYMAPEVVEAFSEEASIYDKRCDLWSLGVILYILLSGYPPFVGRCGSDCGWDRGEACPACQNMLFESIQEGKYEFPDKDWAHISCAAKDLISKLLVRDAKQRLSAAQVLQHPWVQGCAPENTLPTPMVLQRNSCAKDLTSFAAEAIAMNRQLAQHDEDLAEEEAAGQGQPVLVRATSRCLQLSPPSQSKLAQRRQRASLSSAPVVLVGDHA

| remaining activity at 10 µM ([1]; 10 μM) [%] | remaining activity at 10 µM ([2]; 10 μM) [%] | remaining activity at 10 µM ([3]; 10 μM) [%] | Compound | remaining activity at 1 µM [1] [%] | remaining activity at 1 µM [2] [%] | remaining activity at 1 µM [3] [%] |
| --- | --- | --- | --- | --- | --- | --- |
| 78 | 69 | 78 | Nc1nc2c(-c3cc(Br)c(Br)[nH]3)nccc2[nH]1 [Ageladine A, ageladine A, reference compound] | 84 | 2.5 | 100 |
| – | – | – | Nc1nc2c(-c3ccccn3)nccc2[nH]1 [drawing 35, 4-(pyrid-2-yl)-1H-imidazo[4,5-c]pyridin-2-amine] | 50 | 86 | 40 |
| – | – | – | Nc1nc2c(-c3cnc4ccccc4c3)nccc2[nH]1 [drawing 36, 4-(quinolin-3-yl)-1H-imidazo[4,5-c]pyridin-2-amine] | 79 | 100 | 94 |
